From ChEMBL document CHEMBL3880416, “Inhibitors of AKT Activity” (2011)

target: RAC-gamma serine/threonine-protein kinase (Homo sapiens, UniProt Q9Y243); assay: Inhibition of full length human AKT3 expressed in Sf9 cells assessed as reduction in substrate phosphorylation using biotin-ahx-ARKRERAYSFGHHA-amide substrate and [gamma-33P]ATP incubated for 40 mins by top count microplate scintillation counting method
Sequence (Q9Y243 whole entry): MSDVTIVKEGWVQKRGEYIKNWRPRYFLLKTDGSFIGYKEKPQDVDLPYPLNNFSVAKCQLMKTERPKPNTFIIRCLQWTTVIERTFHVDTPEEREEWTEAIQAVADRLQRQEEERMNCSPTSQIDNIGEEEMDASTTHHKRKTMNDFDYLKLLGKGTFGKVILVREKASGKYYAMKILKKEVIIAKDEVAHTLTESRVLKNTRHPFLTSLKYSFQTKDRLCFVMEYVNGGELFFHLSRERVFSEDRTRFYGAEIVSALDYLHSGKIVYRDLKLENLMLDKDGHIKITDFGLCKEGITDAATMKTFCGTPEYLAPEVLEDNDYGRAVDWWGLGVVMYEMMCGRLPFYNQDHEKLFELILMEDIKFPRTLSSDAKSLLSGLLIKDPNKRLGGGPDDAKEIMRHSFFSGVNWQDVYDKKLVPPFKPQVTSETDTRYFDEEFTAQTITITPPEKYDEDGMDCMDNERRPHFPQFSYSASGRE

Row | IC50 | SMILES
1 | 3.16 to 25.1 nM | Cn1ncc(Cl)c1-c1cc(C(=O)N[C@H](CN)Cc2ccc(F)c(F)c2)sc1Cl

target: RAC-alpha serine/threonine-protein kinase (Homo sapiens, UniProt P31749); assay: Inhibition of full length human AKT1 expressed in Sf9 cells assessed as reduction in substrate phosphorylation using biotin-ahx-ARKRERAYSFGHHA-amide substrate and [gamma-33P]ATP incubated for 40 mins by top count microplate scintillation counting method
Sequence (P31749 whole entry): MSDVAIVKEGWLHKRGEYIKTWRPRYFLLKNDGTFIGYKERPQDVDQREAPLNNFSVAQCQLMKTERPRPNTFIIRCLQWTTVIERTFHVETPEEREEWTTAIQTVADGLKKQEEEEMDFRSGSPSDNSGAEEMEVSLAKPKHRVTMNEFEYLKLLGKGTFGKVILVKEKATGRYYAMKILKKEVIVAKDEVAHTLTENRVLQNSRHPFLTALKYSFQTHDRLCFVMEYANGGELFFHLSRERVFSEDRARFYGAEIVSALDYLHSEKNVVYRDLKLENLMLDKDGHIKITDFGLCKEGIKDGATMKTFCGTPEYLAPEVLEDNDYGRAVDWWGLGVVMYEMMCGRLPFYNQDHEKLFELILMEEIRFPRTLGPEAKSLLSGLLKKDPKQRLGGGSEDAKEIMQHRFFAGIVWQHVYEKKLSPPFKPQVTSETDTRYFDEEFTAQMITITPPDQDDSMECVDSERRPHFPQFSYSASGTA

Row | IC50 | SMILES
2 | ≤ 2.51 nM | COc1sc(C(=O)N[C@H](CN)Cc2cccc(F)c2)cc1-c1c(Cl)cnn1C
3 | ≤ 2.51 nM | Cn1nccc1-c1cc(C(=O)N[C@H](CN)Cc2ccc(F)c(F)c2)oc1Cl
4 | ≤ 2.51 nM | Cn1ncc(Br)c1-c1cc(C(=O)N[C@H](CN)Cc2cccc(C(F)(F)F)c2)sc1Cl
5 | ≤ 2.51 nM | Cc1cnn(C)c1-c1cc(C(=O)N[C@H](CN)Cc2cccc(F)c2)oc1Cl
6 | ≤ 2.51 nM | Cn1ncc(Br)c1-c1cc(C(=O)N[C@H](CN)Cc2ccc(F)cc2)sc1Cl
7 | ≤ 2.51 nM | CCn1ncc(Cl)c1-c1cc(C(=O)N[C@H](CN)Cc2ccc(F)c(F)c2)sc1Cl
8 | ≤ 2.51 nM | CCn1ncc(Cl)c1-c1cc(C(=O)N[C@H](CN)Cc2ccc(F)c(F)c2)oc1Cl
9 | ≤ 2.51 nM | Cn1ncc(Br)c1-c1cc(C(=O)N[C@H](CN)Cc2cccc(F)c2)sc1Cl
10 | ≤ 2.51 nM | Cc1cnn(C)c1-c1cc(C(=O)N[C@H](CN)Cc2cccc(F)c2)sc1Cl
11 | ≤ 2.51 nM | Cn1ncc(Cl)c1-c1cc(C(=O)N[C@H](CN)Cc2ccccc2C(F)(F)F)oc1Cl
12 | ≤ 2.51 nM | CCc1sc(C(=O)N[C@H](CN)Cc2cccc(F)c2)cc1-c1c(Cl)cnn1C
13 | ≤ 2.51 nM | CCn1ncc(Cl)c1-c1cc(C(=O)N[C@H](CN)Cc2ccc(F)cc2)sc1Cl
14 | 1.58 to 2.51 nM | Cn1ncc(Cl)c1-c1cc(C(=O)N[C@H](CN)Cc2ccc(F)c(F)c2)sc1Cl
15 | ≤ 2.51 nM | Cn1nccc1-c1cc(C(=O)N[C@H](CN)Cc2cccc(F)c2)sc1Cl
16 | ≤ 2.51 nM | Cn1ncc(Br)c1-c1cc(C(=O)N[C@H](CN)Cc2ccccc2C(F)(F)F)sc1Cl
17 | ≤ 2.51 nM | Cc1cnn(C)c1-c1cc(C(=O)N[C@H](CN)Cc2ccccc2C(F)(F)F)sc1Cl
18 | ≤ 2.51 nM | Cn1ncc(Cl)c1-c1cc(C(=O)N[C@H](CN)Cc2ccccc2C(F)(F)F)sc1Cl
